Experimental data as given in patent US11130752B2, “Aminopyrimidine compound” (Cardurion Pharmaceuticals, LLC, priority 2018, dated 2021).
Structures can show the parent of a compound that is named as a salt.

Each molecule was assayed against T1, human CaMKIIδ (Homo sapiens, UniProt Q13557) (assay: In vitro CaMKII inhibitory activity (binding assay, TR-FRET)). Details: Table 1, GST-tagged human CaMKIIδ, activity ranks.
T1 construct: Full-length, glutathione-S-transferase(GST)-tagged, human CaMKIIδ was purchased from Carna Biosciences; purchased Carna Biosciences (CaMKIIδ); Wako Pure Chemical Industries (calmodulin) 02-111
Method: Evaluation of In Vitro CaMKII Inhibitory Activity (Binding Assay)
In vitro CaMKIIδ inhibitory activity was evaluated by a binding assay.
Full-length, glutathione-S-transferase(GST)-tagged, human CaMKIIδ was purchased from Carna Biosciences (product #02-111, Kobe, Japan). Full-length bovine calmodulin was purchased from Wako Pure Chemical Industries (Osaka, Japan). Terbium-labeled anti-GST antibody (Tb-anti-GST Ab) was purchased from Life Technologies (Carlsbad, Calif., USA). Boron-dipyrromethene (BODIPY)-labeled probe ligand was synthesized as described below.
Time-Resolved Fluorescence Resonance Energy Transfer (TR-FRET) Assay
All assays were conducted using 384-well, white, flat-bottomed plates (product #784075, Greiner Bio-One, Frickenhausen, Germany) in kinase assay buffer, which consists of 50 mM HEPES pH 7.6, 10 mM MgCl2, 1 mM EGTA, 0.01% Brig-35, 0.1 mM DTT). The fluorescent probe ligand was added at a final concentration of 300 nM to solutions containing 0.21 nM Tb-anti-GST Ab, 1 mM CaCl2, 10 μg/mL calmodulin, and 0.5 nM GST-tagged CaMKIIδ. After shaded incubation of the protein-probe mixture on ice for 30 min, the premix was dispensed in the assay plate including test inhibitors with 4 fold dilution series of eight concentrations. After 1 hr incubation at room temperature, TR-FRET signals were measured in duplicate using an EnVision microplate reader (Perkin Elmer, Waltham, Mass., USA). The solution in each well was excited with a laser (λ=340 nm) reflected by a dichroic mirror (D400/D505 (Perkin Elmer) through an excitation filter (UV (TRF) 340, (Perkin Elmer)), and fluorescence from Tb and BODIPY were detected through two emission filters (CFP 495 (Perkin Elmer) for Tb, Emission 520 (Perkin Elmer) for BODIPY).
The percentage of inhibition of test compounds was calculated according to equation (1) Inhibition(%)=100×(μH−T)/(μH−μL) (1)
Where T is the value of the wells containing test compounds and μH and μL are the mean values of the 0% and 100% inhibition control wells, respectively. The values of the 0 and 100% controls were the signals obtained in the absence and presence of 3 μM its parent compound, respectively. The half maximal inhibitory concentration (IC50) of test compounds was calculated by fitting the data with the logistic equation using XLfit (IDBS, Guildford, UK). The IC50 was classified according to the following activity ranks.

**Q.** COCCOc1nn([C@H]2CC[C@H](N3CCOCC3)CC2)cc1Nc1ncc(-c2ccc(C#N)c(O[C@@H](C)Cn3cnnn3)c2)cn1 [Example 1, 2-(((S)-1-(1H-tetrazol-1-yl)propan-2-yl)oxy)-4-(2-((3-(2-methoxyethoxy)-1-((1r,4r)-4-morpholinocyclohexyl)-1H-pyrazol-4-yl)amino)pyrimidin-5-yl)benzonitrile] was tested. Which IC50 did it give?
**A.** < 10 nM

**Q.** Which IC50 does the source give for COCCOc1nn([C@H]2CC[C@H](N3CCOCC3)CC2)cc1Nc1ncc(-c2ccc(Cl)c(O[C@@H](C)Cn3cnnn3)c2)cn1 [Example 2, 5-(3-(((S)-1-(1H-tetrazol-1-yl)propan-2-yl)oxy)-4-chlorophenyl)-N-(3-(2-methoxyethoxy)-1-((1r,4r)-4-morpholinocyclohexyl)-1H-pyrazol-4-yl)pyrimidin-2-amine] here?
**A.** < 10 nM

**Q.** How did the IC50 turn out when CCOCCOc1nn([C@H]2CC[C@H](N3CCOCC3)CC2)cc1Nc1ncc(-c2ccc(C#N)c(O[C@@H](C)Cn3cnnn3)c2)cn1 [Example 8, 2-(((S)-1-(1H-tetrazol-1-yl)propan-2-yl)oxy)-4-(2-((3-(2-ethoxyethoxy)-1-((1r,4r)-4-morpholinocyclohexyl)-1H-pyrazol-4-yl)amino)pyrimidin-5-yl)benzonitrile] was run?
**A.** < 10 nM

**Q.** With CCOCCOc1nn([C@H]2CC[C@H](N3CCOCC3)CC2)cc1Nc1ncc(-c2ccc(Cl)c(O[C@@H](C)Cn3cnnn3)c2)cn1 [Example 9, 5-(3-(((S)-1-(1H-tetrazol-1-yl)propan-2-yl)oxy)-4-chlorophenyl)-N-(3-(2-ethoxyethoxy)-1-((1r,4r)-4-morpholinocyclohexyl)-1H-pyrazol-4-yl)pyrimidin-2-amine] as the molecule, how does the IC50 read?
**A.** < 10 nM

**Q.** With CC(C)OCCOc1nn([C@H]2CC[C@H](N3CCOCC3)CC2)cc1Nc1ncc(-c2ccc(C#N)c(O[C@@H](C)Cn3cnnn3)c2)cn1 [Example 14, 2-(((S)-1-(1H-tetrazol-1-yl)propan-2-yl)oxy)-4-(2-((3-(2-isopropoxyethoxy)-1-((1r,4r)-4-morpholinocyclohexyl)-1H-pyrazol-4-yl)amino)pyrimidin-5-yl)benzonitrile] as the molecule, how does the IC50 read?
**A.** < 10 nM

**Q.** CC(C)OCCOc1nn([C@H]2CC[C@H](N3CCOCC3)CC2)cc1Nc1ncc(-c2ccc(C#N)c(O[C@@H](C)Cn3cncn3)c2)cn1 [Example 16, 2-(((S)-1-(1H-1,2,4-triazol-1-yl)propan-2-yl)oxy)-4-(2-((3-(2-isopropoxyethoxy)-1-((1r,4r)-4-morpholinocyclohexyl)-1H-pyrazol-4-yl)amino)pyrimidin-5-yl)benzonitrile] was tested. Which IC50 did it give?
**A.** < 10 nM

**Q.** For COCCCOc1nn([C@H]2CC[C@H](N3CCOCC3)CC2)cc1Nc1ncc(-c2ccc(Cl)c(O[C@@H](C)Cn3cnnn3)c2)cn1 [Example 27, 5-(3-(((S)-1-(1H-tetrazol-1-yl)propan-2-yl)oxy)-4-chlorophenyl)-N-(3-(3-methoxypropoxy)-1-((1r,4r)-4-morpholinocyclohexyl)-1H-pyrazol-4-yl)pyrimidin-2-amine], which IC50 is on record?
**A.** < 10 nM

**Q.** COCCCOc1nn([C@H]2CC[C@H](N3CCOCC3)CC2)cc1Nc1ncc(-c2ccc(C#N)c(O[C@@H](C)Cn3cncn3)c2)cn1 [Example 28, 2-(((S)-1-(1H-1,2,4-triazol-1-yl)propan-2-yl)oxy)-4-(2-((3-(3-methoxypropoxy)-1-((1r,4r)-4-morpholinocyclohexyl)-1H-pyrazol-4-yl)amino)pyrimidin-5-yl)benzonitrile] was tested. Which IC50 did it give?
**A.** < 10 nM

**Q.** Which IC50 does the source give for CCOCCCOc1nn([C@H]2CC[C@H](N3CCOCC3)CC2)cc1Nc1ncc(-c2ccc(Cl)c(O[C@@H](C)Cn3cnnn3)c2)cn1 [Example 34, 5-(3-(((S)-1-(1H-tetrazol-1-yl)propan-2-yl)oxy)-4-chlorophenyl)-N-(3-(3-ethoxypropoxy)-1-((1r,4r)-4-morpholinocyclohexyl)-1H-pyrazol-4-yl)pyrimidin-2-amine] here?
**A.** < 10 nM

**Q.** C[C@@H](Cn1cnnn1)Oc1cc(-c2cnc(Nc3cn([C@H]4CC[C@H](N5CCOCC5)CC4)nc3OCCCOCC(F)F)nc2)ccc1C#N [Example 46, 2-(((S)-1-(1H-tetrazol-1-yl)propan-2-yl)oxy)-4-(2-((3-(3-(2,2-difluoroethoxy)propoxy)-1-((1r,4r)-4-morpholinocyclohexyl)-1H-pyrazol-4-yl)amino)pyrimidin-5-yl)benzonitrile] was tested. Which IC50 did it give?
**A.** < 10 nM

**Q.** Which IC50 does the source give for C[C@@H](Cn1cnnn1)Oc1cc(-c2cnc(Nc3cn([C@H]4CC[C@H](N5CCOCC5)CC4)nc3OCCCOCC(F)F)nc2)ccc1Cl [Example 47, 5-(3-(((S)-1-(1H-tetrazol-1-yl)propan-2-yl)oxy)-4-chlorophenyl)-N-(3-(3-(2,2-difluoroethoxy)propoxy)-1-((1r,4r)-4-morpholinocyclohexyl)-1H-pyrazol-4-yl)pyrimidin-2-amine] here?
**A.** < 10 nM

**Q.** For COCCOCCOc1nn([C@H]2CC[C@H](N3CCOCC3)CC2)cc1Nc1ncc(-c2ccc(C#N)c(O[C@@H](C)Cn3cnnn3)c2)cn1 [Example 48, 2-(((S)-1-(1H-tetrazol-1-yl)propan-2-yl)oxy)-4-(2-((3-(2-(2-methoxyethoxy)ethoxy)-1-((1r,4r)-4-morpholinocyclohexyl)-1H-pyrazol-4-yl)amino)pyrimidin-5-yl)benzonitrile hydrochloride], which IC50 is on record?
**A.** < 10 nM

**Q.** How did the IC50 turn out when COCCOCCOc1nn([C@H]2CC[C@H](N3CCOCC3)CC2)cc1Nc1ncc(-c2ccc(Cl)c(O[C@@H](C)Cn3cnnn3)c2)cn1 [Example 49, 5-(3-(((S)-1-(1H-tetrazol-1-yl)propan-2-yl)oxy)-4-chlorophenyl)-N-(3-(2-(2-methoxyethoxy)ethoxy)-1-((1r,4r)-4-morpholinocyclohexyl)-1H-pyrazol-4-yl)pyrimidin-2-amine hydrochloride] was run?
**A.** < 10 nM

**Q.** For C[C@@H](Cn1cnnn1)Oc1cc(-c2cnc(Nc3cn([C@H]4CC[C@H](N5[C@@H]6CC[C@H]5COC6)CC4)nc3OCCS(C)(=O)=O)nc2)ccc1Cl [Example 86, 5-(3-(((S)-1-(1H-tetrazol-1-yl)propan-2-yl)oxy)-4-chlorophenyl)-N-(1-((1r,4r)-4-((1R,5S)-3-oxa-8-azabicyclo[3.2.1]octan-8-yl)cyclohexyl)-3-(2-(methylsulfonyl)ethoxy)-1H-pyrazol-4-yl)pyrimidin-2-amine], which IC50 is on record?
**A.** < 10 nM

**Q.** With C[C@@H](Cn1cnnn1)Oc1cc(-c2cnc(Nc3cn([C@H]4CC[C@H](N5CCOCC5)CC4)nc3OCc3ccccn3)nc2)ccc1C#N [Example 129, 2-(((S)-1-(1H-tetrazol-1-yl)propan-2-yl)oxy)-4-(2-((1-((1r,4r)-4-morpholinocyclohexyl)-3-(pyridin-2-ylmethoxy)-1H-pyrazol-4-yl)amino)pyrimidin-5-yl)benzonitrile] as the molecule, how does the IC50 read?
**A.** < 10 nM

**Q.** With C[C@@H](Cn1cnnn1)Oc1cc(-c2cnc(Nc3cn([C@H]4CC[C@H](N5CCOCC5)CC4)nc3OCc3ccccn3)nc2)ccc1Cl [Example 130, 5-(3-(((S)-1-(1H-tetrazol-1-yl)propan-2-yl)oxy)-4-chlorophenyl)-N-(1-((1r,4r)-4-morpholinocyclohexyl)-3-(pyridin-2-ylmethoxy)-1H-pyrazol-4-yl)pyrimidin-2-amine] as the molecule, how does the IC50 read?
**A.** < 10 nM

**Q.** C[C@@H](Cn1cnnn1)Oc1cc(-c2cnc(Nc3cn([C@H]4CC[C@H](N5[C@@H]6CC[C@H]5COC6)CC4)nc3OCCCS(C)(=O)=O)nc2)ccc1Cl [Example 142, 5-(3-(((S)-1-(1H-tetrazol-1-yl)propan-2-yl)oxy)-4-chlorophenyl)-N-(1-((1r,4r)-4-((1R,5S)-3-oxa-8-azabicyclo[3.2.1]octan-8-yl)cyclohexyl)-3-(3-(methylsulfonyl)propoxy)-1H-pyrazol-4-yl)pyrimidin-2-amine] was tested. Which IC50 did it give?
**A.** < 10 nM
